Assay results from article PMC6015222, “Targeting Phosphopeptide Recognition by the Human BRCA1 Tandem BRCT Domain to Interrupt BRCA1-Dependent Signaling” (Cell Chemical Biology, 2018).

How the values were obtained:
TOPBP1 tBRCT 7/8 = target: T1, TOPBP1 tBRCT 7/8 (Homo sapiens, UniProt Q92547); assay: Competitive MST selectivity: TOPBP1 7/8; assay type: binding
T1 construct: TOPBP1 tBRCT 7/8 residues 1264–1493; made in house; host or cells: E. coli BL21(DE3*)
Experimental: (§1) Protein domains used in the assay were labeled with NT-647-NHS fluorescent dye using the Monolith NT™ Protein Labeling Kit (NanoTemper Technologies). Assays were carried out in 20mM Tris buffer, pH 7.4, with 200mM NaCl, 0.05% Tween-20 and 2mM DTT. For the direct binding assay, 10μl of labeled protein at a final concentration of 20nM was mixed with 10μl of test compound and incubated on ice for 10 min. For the competitive assay, 10μl of labeled protein at a final concentration of 20nM was mixed with 2μM cognate peptide substrate at the EC80 concentration determined by prior titration using a 16-point serial dilution by direct-binding MST. For both assays, samples prepared as above were centrifuged at 15000 rpm at 4°C for 10 min and 4μl of the supernatant was loaded into premium glass capillaries (NanoTemper Technologies). MST analysis was performed at MST power of 40% and LED power of 80%, at 22°C temperature using a Monolith NT.115 (NanoTemper Technologies). An initial “Capillary Scan” was performed to scan for fluorescence across the length of the capillary tray to determine the exact position of each capillary before the MST measurement was started. Test compounds were assayed at 16 different concentrations by serial dilution, and data were analysed using NanoTemper analysis software. Kd values were determined using “T-jump + Thermophoresis” settings. […]

TOPBP1 BRCT 1/2 = target: T2, TOPBP1 BRCT 1/2 (Homo sapiens, UniProt Q92547); assay: Competitive MST selectivity: TOPBP1 1/2; assay type: binding
T2 construct: TOPBP1 BRCT 1/2 residues 1-290; 6x His (N); made in house; host or cells: E. coli BL21(DE3)
Experimental: as §1

MDC1 foci = assay: Radiation-induced nuclear MDC1 foci, HEK293 cells; assay type: cell-based, human; settings: 100 μM added 6 hr after 16 Gy
Experimental: (§2) HEK293 cells stably harboring plasmids for Tet-inducible expression of tBRCT domains were seeded at 30,000 cells/well on Matrigel-coated 96-well plates, and treated as indicated. Cells were fixed in 2.5% PFA, for 20’ at RT and incubated in 1x PBS with 10% FBS plus 0.5% TritonX-100 for 1 h for blocking and permeabilization. Primary antibody staining was performed at the indicated dilutions in PBST-BSA buffer (0.7mg/ml BSA, 0.05% Tween-20 in 1XPBS) for 1h at RT. Cells were then extensively washed in PBST-BSA buffer and stained with goat-anti-mouse Alexa 488 secondary antibody (Invitrogen), at 1:1000 dilution along with 2.5μg/ml DAPI for nuclear staining. […] Images were acquired on a high-content imaging platform (Cellomics ArrayScan VTI HCS Reader (Thermo Fisher Scientific)) using a 40x objective. On average ∼800 fields from 6-well replicates, containing a total of ∼10-20K cells were imaged per treatment group and quantified using image analysis software (in-house algorithms using MatLab and commercially available HCS studio 2.0 from Thermo Fisher Scientific). […] Cut-off values for foci number per cell specifying the maximal difference between control and irradiated samples were determined to calculate the percentage of cells positive for radiation-induced foci. […]

TOPBP1 foci = assay: Radiation-induced TOPBP1 foci, U2OS cells; assay type: cell-based; settings: 100 μM added 6 h after irradiation
HEK293 cells [1] = assay: Cell cycle profiles by flow cytometry after 4 Gy (damage-induced G2 arrest); assay type: cell-based, human; settings: 10–100 μM Bractoppin or 100 μM CCBT2047 added 0.5 hr before radiation
Experimental: HEK293 cells stably harboring plasmids for Tet-inducible expression of tBRCT domains were seeded on 12-well plates at 1.8 X10^5 cells/well. Cells were thymidine blocked and synchronously released into the cell cycle following irradiation at 4Gy, without or with exposure to compounds (at final concentrations with 0.5% DMSO) in serum-containing media for 16 h. Cells were re-suspended in 1x PBS, fixed with 80% ethanol, and permeabilized in buffer containing 0.1% Tween-20 in PBS (PBST), for 20’ at RT. DAPI staining was used to quantify nuclear DNA content. Analysis was performed using a Beckman Coulter Gallios analyzer, and quantified using the Dean-Jet algorithm in FlowJo software.

HEK293 cells [2] = assay: Cell viability after 1 Gy irradiation (calcein AM dye and cell counting); assay type: cell-based, human; settings: 1–100 μM added 1 hr before 1 Gy, viability 7 days later
Experimental: HEK293 cells stably harboring plasmids for Tet-inducible expression of tBRCT domains were seeded at a density of 60,000 cells/35mm dish. Compound addition or inducible expression of BRCA1 tBRCT were performed as indicated, when cells were ∼30% confluent, before exposure to 1Gy irradiation. Cells were replenished with media every 3rd day for 7 days, re-suspended in cell dissociation buffer, which was neutralized in 1x PBS. Cells were mixed thoroughly to ensure single cell suspension before measurement of viability using Calcein AM dye and/or cell counting with a hemocytometer. Cell survival fractions were measured using fluorescence readout of Calcein AM with the Tecan Infinite M1000 Pro reader (485nm excitation and 515nm emission) and data were normalized to untreated controls across treatment groups.

RAD51 foci = assay: Radiation-induced nuclear RAD51 foci; assay type: cell-based, human; settings: 100 μM, 16 Gy, as Figure 5A
Experimental: as §2

cells = assay: Cellular effects of Bractoppin, summary over the cell assays; assay type: cell-based

binding to fluorescently labeled TOPBP1 7/8 tBRCT domain (TOPBP1 tBRCT 7/8): does not detectably bind
binding to fluorescently labeled TOPBP1 1/2 tBRCT domain (TOPBP1 BRCT 1/2): does not detectably bind
SMILES: O=C(c1ccc2nc(-c3ccccc3)[nH]c2c1)N1CCN(Cc2ccccc2F)CC1 [Bractoppin, (4-(2-fluorobenzyl)piperazin-1-yl) (2-phenyl-1H-benzo[d]imidazol-6-yl) methanone]
effect on radiation-induced accumulation of MDC1 at sites of DNA damage (MDC1 foci): little effect
effect on radiation-induced recruitment of TOPBP1 (TOPBP1 foci): little effect
effect on damage-induced G2 arrest (HEK293 cells [1]): inhibited in a dose-dependent manner
effect on cytotoxicity induced by exposure to 1 Gy IR (HEK293 cells [2]): significantly enhances cytotoxicity
effect on IR-induced RAD51 foci (RAD51 foci): selectively suppresses
concentration at which cellular effects are elicited (cells): 10 to 100 µM
